Data reported in ChEMBL document CHEMBL1201862, “PubChem BioAssay data set” (2004).
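Values below derive from 48-hour exposures of cells grown in 96-well plates, with endpoints linearly interpolated between the two concentrations bracketing the appropriate inhibition level. Abbreviation: GI50, concentration required for 50% inhibition of growth.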 The source made the active and inactive calls. Rule as the data show it: active = GI50 up to about 1.1 µM and inactive = higher.

Assays:
Experiment in all cases: DTP human tumour cell line panel, 48 h
[1] = system: SK-MEL-5
[2] = system: NCI-H23
[3] = system: RXF 393
[4] = system: CAKI-1
[5] = system: ACHN
[6] = system: OVCAR-4
[7] = system: MOLT-4
[8] = system: HOP-62
[9] = system: SF-295
[10] = system: K562
[11] = system: HT-29
[12] = system: HCT-116
[13] = system: SF-268
[14] = system: MDA-MB-435
[15] = system: IGROV-1
[16] = system: M14
[17] = system: UACC-257
[18] = system: SK-OV-3
[19] = system: RPMI-8226
[20] = system: HL-60

Measured: GI50

O=C1c2ccccc2C(=O)c2c(Nc3ccc4c5c(cccc35)C(=O)c3ccccc3-4)cccc21
inactive: [1] > 100 µM | [2] > 100 µM | [3] > 100 µM | [4] > 100 µM | [5] > 100 µM | [6] > 100 µM | [7] > 100 µM | [8] > 100 µM | [9] > 100 µM | [10] > 100 µM | [11] > 100 µM | [12] > 100 µM | [13] > 100 µM | [14] > 100 µM | [15] 71.1 µM | [16] > 100 µM | [17] > 100 µM

COc1cc([C@H]2CC(=O)C[C@H](c3cc(OC)c(OC)c(OC)c3)C23C(=O)c2ccccc2C3=O)cc(OC)c1OC
inactive: [1] > 100 µM | [2] > 100 µM | [3] 32.5 µM | [4] > 100 µM | [5] 59.4 µM | [7] 29.1 µM | [18] 37.3 µM | [8] 51.5 µM | [9] 47.1 µM | [10] 44.2 µM | [11] > 100 µM | [12] 19.8 µM | [13] > 100 µM | [14] > 100 µM | [15] > 100 µM | [16] > 100 µM | [17] > 100 µM | [19] > 100 µM

C#CCN(N=O)C(=O)NC(CCCNC(=O)OCc1ccccc1)C(=O)OCc1ccccc1 (stereo unspecified)
inactive: [1] > 100 µM | [2] > 100 µM | [3] 22.6 µM | [4] 28.1 µM | [5] > 100 µM | [6] > 100 µM | [7] 24.8 µM | [18] > 100 µM | [8] > 100 µM | [9] > 100 µM | [10] 61.9 µM | [20] 20.1 µM | [11] > 100 µM | [12] > 100 µM | [13] 18.2 µM | [15] > 100 µM | [16] > 100 µM | [17] 77.1 µM | [19] 63.2 µM

O=C(NNC(=O)c1ccccc1Cl)c1ccccc1O
inactive: [1] > 100 µM | [3] > 100 µM | [4] 41.3 µM | [6] > 100 µM | [7] 57.1 µM | [18] 18.2 µM | [8] 31.8 µM | [9] 32.7 µM | [10] 91 µM | [11] 23.8 µM | [12] 35.8 µM | [13] 10.6 µM | [14] 67 µM | [15] 3.84 µM | [16] 39.7 µM | [17] > 100 µM | [19] > 100 µM

CC1C(c2ccccc2)=CCON1c1ccccc1 (stereo unspecified)
inactive: [1] > 100 µM | [2] > 100 µM | [3] > 100 µM | [4] > 100 µM | [5] > 100 µM | [6] > 100 µM | [7] > 100 µM | [18] > 100 µM | [8] > 100 µM | [9] > 100 µM | [10] > 100 µM | [20] > 100 µM | [11] > 100 µM | [12] > 100 µM | [13] > 100 µM | [15] > 100 µM | [16] > 100 µM | [17] > 100 µM | [19] > 100 µM

CCCCCCCCCCCCCCCCc1c(C(=O)OC)[nH]c(=S)[nH]c1=O
inactive: [1] > 50 µM | [2] > 50 µM | [3] > 50 µM | [4] > 50 µM | [5] > 50 µM | [6] > 50 µM | [7] > 50 µM | [18] > 50 µM | [8] > 50 µM | [9] > 50 µM | [10] > 50 µM | [20] > 50 µM | [11] > 50 µM | [12] > 50 µM | [13] > 50 µM | [15] > 50 µM | [16] > 50 µM | [17] > 50 µM | [19] > 50 µM

N#Cc1sc2nc3ccccc3n2c1N
inactive: [1] 95.7 µM | [2] 52.5 µM | [3] 17.6 µM | [4] 37.2 µM | [5] 92.3 µM | [6] > 100 µM | [7] 31.4 µM | [18] 40.1 µM | [8] 84.5 µM | [9] > 100 µM | [11] 75 µM | [12] > 100 µM | [13] 60.3 µM | [14] > 100 µM | [15] 58.7 µM | [16] > 100 µM | [17] > 100 µM | [19] 84.3 µM

Cn1ccc2c(c1=O)C(=O)OC2(C)C [CERPEGIN]
inactive: [1] > 100 µM | [2] > 100 µM | [3] > 100 µM | [4] > 100 µM | [5] > 100 µM | [6] > 100 µM | [7] > 100 µM | [18] > 100 µM | [8] > 100 µM | [9] > 100 µM | [10] > 100 µM | [20] > 100 µM | [11] > 100 µM | [12] > 100 µM | [13] > 100 µM | [15] > 100 µM | [16] > 100 µM | [17] > 100 µM | [19] > 100 µM
